From patent US11771671B2, “Use of (1S,3S)-3-amino-4-(difluoromethylidene) cyclopentane-1-carboxylic acid and (S)-3-amino-4-(difluoromethylenyl)cyclopent-1-ene-1-carboxylic acid in the treatment of tinnitus, acute sensorineural hearing loss, Meniere's disease, Tourette's syndrome, attention deficit hyperactivity disorder and …” (Ovid Therapeutics Inc., priority 2018, dated 2023)

Experiment: plasma pharmacokinetics
Type: in vivo

AUCs dose proportionality (dose range of 5 mg-500 mg): greater than proportional increase | C. dose proportionality (dose range of 5 mg-500 mg): increases in a dose proportional manner | half-life (plasma, read-out: plasma elimination half-life): 4 to 6 h
Structure (SMILES): N[C@H]1C[C@@H](C(=O)O)CC1=C(F)F [(1S,3S)-3-amino-4-(difluoromethylidene)cyclopentane-1-carboxylic acid]
